Source: US9756860B2, “Antimicrobial composition of ortho phenylphenol and silver” (Rohm and Haas Company, priority 2011, dated 2017)
Like-named read-outs stand apart in the source and are kept apart here.

Experiments:
Format in all cases: cell-based
[1] = tested on: Candida albicans ATCC#10203; assay: MIC / synergy index test in 96 well microtiter plates, yeast; conditions: C. albicans, ppm active; for MIC: Candida albicans, ATCC10203, alone, read-out: MIC of compound acting alone (CA / CB)
Description: (§1) Ortho phenylphenol and silver are evaluated for synergy by determining the synergy index (S.I.) of the combination. Synergy index is calculated based on minimum inhibitory concentrations (MIC) of two antimicrobial compounds (A and B) alone and in combinations. The tests organisms are Gram negative bacteria (Pseudomonas aeruginosa), Gram positive bacteria (Staphylococcus aureus), yeast (Candida albicans) and mold (Aspergillus niger). Contact time for the bacteria is 24 and 48 hours, yeast is 48 and 72 hrs, and 3 and 7 days for mold. The test is carried out in 96 well microtiter plates.
(§2) SI is calculated as follows: Ca/CA+Cb/CB=Synergy Index (“SI”) Wherein: • CA=concentration of compound A in ppm, acting alone, which produced an end point (MIC of Compound A). • Ca=concentration of compound A in ppm, in the mixture, which produced an end point. • CB=concentration of compound B in ppm, acting alone, which produced an end point (MIC of Compound B). • Cb=concentration of compound B in ppm, in the mixture, which produced an end point. When the sum of Ca/CA and Cb/CB is greater than one, antagonism is indicated.

[2] = tested on: Aspergillus niger ATCC# 16404; assay: MIC / synergy index test in 96 well microtiter plates, mold; conditions: A. niger, ppm active
Description: as §1, §2

[3] = tested on: Staphylococcus aureus ATCC# 6538; assay: MIC / synergy index test in 96 well microtiter plates, Gram positive bacteria; conditions: S. aureus, ppm active; for MIC: Staphylococcus aureus, ATCC6538, alone, read-out: MIC of compound acting alone (CA / CB)
Description: as §1, §2

[4] = tested on: Pseudomonas aeruginosa ATCC # 15442; assay: MIC / synergy index test in 96 well microtiter plates, Gram negative bacteria; conditions: Ps. aeruginosa, ppm active; for MIC: Pseudomonas aeruginosa, ATCC15442, alone, read-out: MIC of compound acting alone (CA / CB)
Description: as §1, §2

In the case of `Oc1ccccc1-c1ccccc1` [OPP, ortho-phenylphenol], the MIC ([1]; contact time 48 hrs) is reported as 150 µg/mL, the MIC ([1]; contact time 72 hrs) is reported as 150 µg/mL and the “MIC of compound acting alone (CA / CB)” value ([2]; contact time 3rd day) is reported as 75 ppm. It also gave an MIC ([2]; Aspergillus niger, ATCC16404, contact time 7th day, alone, read-out: MIC of compound acting alone (CA / CB)) of 75 µg/mL, an MIC ([3]; contact time 24 hrs) of 200 µg/mL and an MIC ([3]; contact time 48 hrs) of 200 µg/mL. It also gave an MIC ([4]; contact time 24 hrs) of 500 µg/mL and an MIC ([4]; contact time 48 hrs) of 500 µg/mL.
`O=[N+]([O-])[O-].[Ag+]` [AgNO3, Silver Nitrate] was tested, and the “MIC of compound acting alone (CA / CB)” value ([1]; contact time 48 hrs) was 10 ppm, the “MIC of compound acting alone (CA / CB)” value ([1]; contact time 72 hrs) was 10 ppm and the “MIC of compound acting alone (CA / CB)” value ([2]; contact time 3rd day) was 3 ppm. For the same compound, the “MIC of compound acting alone (CA / CB)” value ([2]; contact time 7th day) was 10 ppm, the “MIC of compound acting alone (CA / CB)” value ([3]; contact time 24 hrs) was 6 ppm and the “MIC of compound acting alone (CA / CB)” value ([3]; contact time 48 hrs) was 8 ppm. The “MIC of compound acting alone (CA / CB)” value ([4]; contact time 24 hrs) was 0.4 ppm and the “MIC of compound acting alone (CA / CB)” value ([4]; contact time 48 hrs) was 1 ppm.
